Values joined by “and” are separate entries in the source; they are usually repeats but may differ in a detail not shown here. Equal entries are not always repeated.

The experiment in a line: Antagonist activity at P2Y12 receptor assessed as inhibition of ADP-induced human platelet aggregation by washed platelet assay.
As to `O=c1ccn([C@@H]2O[C@H](COP(=O)(O)OP(=O)(O)OP(=O)(O)OP(=O)(O)OC[C@@H]3O[C@H](n4ccc(=O)[nH]c4=O)[C@H]4OC(c5ccccc5)O[C@H]43)[C@H]3OC(c4ccccc4)O[C@H]32)c(=O)[nH]1` (some centres not stated), the IC50 (commonly the midpoint of a concentration-inhibition curve) stood at 8.29 µM.

Turning to `CNc1ccccc1C(=O)O[C@H]1[C@@H](O)[C@H](n2ccc(=O)[nH]c2=O)O[C@@H]1COP(=O)(O)OP(=O)(O)OP(=O)(O)OP(=O)(O)OC[C@@H]1O[C@H](n2ccc(=O)[nH]c2=O)[C@@H](OC(=O)c2ccccc2NC)[C@H]1O`, the IC50 came to 7.59 µM. The same measure for `O=c1ccn([C@@H]2O[C@H](COP(=O)(O)OP(=O)(O)OP(=O)(O)OP(=O)(O)OC[C@@H]3O[C@H](n4ccc(=O)[nH]c4=O)[C@H]4OC(/C=C/c5ccccc5)O[C@H]43)[C@H]3OC(/C=C/c4ccccc4)O[C@H]32)c(=O)[nH]1` (some centres not stated): 3.3 µM. The same measure for `O=c1ccn([C@@H]2O[C@H](COP(=O)(O)OP(=O)(O)OP(=O)(O)OP(=O)(O)OC[C@@H]3O[C@H](n4ccc(=O)[nH]c4=O)[C@@H](O)[C@H]3O)[C@H]3OC(/C=C/c4ccccc4)O[C@H]32)c(=O)[nH]1` (some centres not stated): 8.68 µM and 8.8 µM; for `O=c1ccn([C@@H]2O[C@H](COP(=O)(O)OP(=O)(O)OP(=O)(O)OP(=O)(O)OC[C@@H]3O[C@H](n4ccc(=O)[nH]c4=O)[C@@H](O)[C@H]3O)[C@@H]3OC(c4ccccc4)O[C@H]32)c(=O)[nH]1` (some centres not stated): 16.7 µM.

Take `O=C(Nc1ccccc1)Nc1ncnc2c1ncn2[C@@H]1O[C@H](COP(=O)(O)O)[C@H]2OC(C#Cc3ccccc3)O[C@H]21` (some centres not stated): the IC50 is 0.288 µM.

Turning to `CCCCCCNC(=O)Nc1ncnc2c1ncn2[C@@H]1O[C@H](COP(=O)(O)O)[C@H]2OC(C#Cc3ccccc3)O[C@H]21` (some centres not stated), the IC50 is 0.211 µM.

Consider `O=C(Nc1ccccc1)Nc1ncnc2c1ncn2[C@@H]1O[C@H](COP(=O)(O)O)[C@H]2OC(/C=C/c3ccccc3)O[C@H]21` (some centres not stated), for which the IC50 stood at 0.21 µM. With `CCCCCCNC(=O)Nc1ncnc2c1ncn2[C@@H]1O[C@H](COP(=O)(O)O)[C@H]2OC(/C=C/c3ccccc3)O[C@H]21` (some centres not stated), the IC50 came out at 0.237 µM.

As for `CCNC(=O)Nc1ncnc2c1ncn2[C@@H]1O[C@H](COP(=O)(O)O)[C@H]2OC(c3ccccc3)O[C@H]21` (some centres not stated), the IC50 worked out at 0.013 µM.

For the compound `O=C(Nc1ncnc2c1ncn2[C@@H]1O[C@H](COP(=O)(O)O)[C@H]2OC(Cc3ccccc3)O[C@H]21)NC1CCCC1` (some centres not stated), the IC50 is 0.0362 µM.

Turning to `CCNC(=O)Nc1ncnc2c1ncn2[C@@H]1O[C@H](COP(=O)(O)O)[C@H]2OC(Cc3ccccc3)O[C@H]21` (some centres not stated), the IC50 turned out to be 0.041 µM. The same measure for `CCCCCCNC(=O)Nc1ncnc2c1ncn2[C@@H]1O[C@H](COP(=O)(O)O)[C@H]2OC(Cc3ccccc3)O[C@H]21` (some centres not stated): 0.053 µM. Take `O=C(Nc1ccccc1)Nc1ncnc2c1ncn2[C@@H]1O[C@H](COP(=O)(O)O)[C@H]2OC(Cc3ccccc3)O[C@H]21` (some centres not stated): the IC50 came to 0.16 µM. Next, `Nc1ncnc2c1ncn2[C@@H]1O[C@H](COP(=O)(O)O)[C@H]2OC(C#Cc3ccccc3)O[C@H]21` (some centres not stated): 57.1 µM; `Nc1ncnc2c1ncn2[C@@H]1O[C@H](COP(=O)(O)O)[C@H]2OC(/C=C/c3ccccc3)O[C@H]21` (some centres not stated): 45.1 µM; `O=C(Nc1ccccc1)Nc1ncnc2c1ncn2[C@@H]1O[C@H](COP(=O)(O)O)[C@@H](O)[C@H]1O`: 3.11 µM.

In the case of `O=C(Nc1ccc(F)cc1)Nc1ccn([C@@H]2O[C@H](COP(=O)(O)OP(=O)(O)OP(=O)(O)OP(=O)(O)OC[C@@H]3O[C@H](n4ccc(=O)[nH]c4=O)[C@@H](O)[C@H]3O)[C@H]3O[C@@H](Cc4ccccc4)O[C@H]32)c(=O)n1`, the IC50 was found to be 12.9 µM. The same measure for `O=C(Nc1ccc(F)cc1)Nc1ccn([C@@H]2O[C@H](COP(=O)(O)OP(=O)(O)OP(=O)(O)OP(=O)(O)OC[C@@H]3O[C@H](n4ccc(=O)[nH]c4=O)[C@H]4O[C@@H](Cc5ccccc5)O[C@H]43)[C@@H](O)[C@H]2O)c(=O)n1`: 23.9 µM; for `O=C(Nc1ccc(F)cc1)Nc1ccn([C@@H]2O[C@H](COP(=O)(O)O)[C@H]3O[C@@H](Cc4ccccc4)O[C@H]32)c(=O)n1`: 11.2 µM. For `O=C(Nc1ccccc1)Nc1ncnc2c1ncn2[C@@H]1O[C@H](COP(=O)(O)OP(=O)(O)OP(=O)(O)OP(=O)(O)OC[C@@H]2O[C@H](n3cnc4c(NC(=O)Nc5ccccc5)ncnc43)[C@H]3O[C@@H](Cc4ccccc4)O[C@H]32)[C@H]2O[C@@H](Cc3ccccc3)O[C@H]21`, the IC50 turned out to be 0.522 µM. Turning to `O=C(Nc1ccccc1)Nc1ncnc2c1ncn2[C@@H]1O[C@H](COP(=O)(O)OP(=O)(O)O)[C@H]2O[C@@H](Cc3ccccc3)O[C@H]21`, the IC50 worked out at 0.052 µM. The same measure for `Nc1ncnc2c1ncn2[C@@H]1O[C@H](COP(=O)(O)OP(=O)(O)O)[C@H]2O[C@@H](Cc3ccccc3)O[C@H]21`: 23 µM; for `O=C(Nc1ccccc1)Nc1ncnc2c1ncn2[C@@H]1O[C@H](COP(=O)(O)OP(=O)(O)O)[C@@H](O)[C@H]1O`: 10.8 µM. The same measure for `Nc1ncnc2c1ncn2[C@@H]1O[C@H](COP(=O)(O)OP(=O)(O)OP(=O)(O)OP(=O)(O)OC[C@@H]2O[C@H](n3cnc4c(N)ncnc43)[C@H]3OC(Cc4ccccc4)O[C@H]32)[C@H]2OC(Cc3ccccc3)O[C@H]21` (some centres not stated): 11.7 µM; for `Nc1ncnc2c1ncn2[C@@H]1O[C@H](COP(=O)(O)OP(=O)(O)OP(=O)(O)OP(=O)(O)OC[C@@H]2O[C@H](n3cnc4c(N)ncnc43)[C@@H](O)[C@H]2O)[C@H]2OC(Cc3ccccc3)O[C@H]21` (some centres not stated): 6.54 µM. Next, `O=c1ccn([C@@H]2O[C@H](COP(=O)(O)OP(=O)(O)OP(=O)(O)OC[C@@H]3O[C@H](n4ccc(=O)[nH]c4=O)[C@H]4OC(Cc5ccccc5)O[C@H]43)[C@H]3OC(Cc4ccccc4)O[C@H]32)c(=O)[nH]1` (some centres not stated): 4.63 µM. On to `O=c1ccn([C@@H]2O[C@H](COP(=O)(O)OP(=O)(O)OP(=O)(O)OC[C@@H]3O[C@H](n4ccc(=O)[nH]c4=O)[C@@H](O)[C@H]3O)[C@H]3OC(Cc4ccccc4)O[C@H]32)c(=O)[nH]1` (some centres not stated), for which the IC50 turned out to be 34.7 µM. For `CCCCCCCC1O[C@@H]2[C@H](O1)[C@@H](COP(=O)(O)OP(=O)(O)OP(=O)(O)OP(=O)(O)OC[C@@H]1O[C@H](n3ccc(=O)[nH]c3=O)[C@H]3OC(CCCCCCC)O[C@H]31)O[C@H]2n1ccc(=O)[nH]c1=O` (some centres not stated), the IC50 turned out to be 10.7 µM. Take `CCCCCCCC1O[C@@H]2[C@H](O1)[C@@H](COP(=O)(O)OP(=O)(O)OP(=O)(O)OP(=O)(O)OC[C@@H]1O[C@H](n3ccc(=O)[nH]c3=O)[C@@H](O)[C@H]1O)O[C@H]2n1ccc(=O)[nH]c1=O` (some centres not stated): the IC50 amounted to 16.9 µM. Turning to `O=c1ccn([C@@H]2O[C@H](COP(=O)(O)OP(=O)(O)OP(=O)(O)OP(=O)(O)OC[C@@H]3O[C@H](n4ccc(=O)[nH]c4=O)[C@H]4OC(Cc5ccccc5)O[C@H]43)[C@H]3OC(Cc4ccccc4)O[C@H]32)c(=O)[nH]1` (some centres not stated), the IC50 stood at 1.82 µM. Consider `O=c1ccn([C@@H]2O[C@H](COP(=O)(O)OP(=O)(O)OP(=O)(O)OP(=O)(O)OC[C@@H]3O[C@H](n4ccc(=O)[nH]c4=O)[C@@H](O)[C@H]3O)[C@@H]3OC(Cc4ccccc4)O[C@H]32)c(=O)[nH]1` (some centres not stated), for which the IC50 turned out to be 27.1 µM.
